Measured values reported in article PMC11786723, “Endoplasmic reticulum membrane remodeling by targeting reticulon-4 induces pyroptosis to facilitate antitumor immune” (Protein & Cell, 2024).

How the values were obtained:
[1] = molecular target: T1, reticulon-4 (RTN4/Nogo) (Homo sapiens, UniProt Q9NQC3); test: microscale thermophoresis (MST); supported by competitive pull-down; assay type: binding; parameters: RTN4B isoform focused on; MST construct printed only as RTN4
T1 sequence (Q9NQC3 1-373 isoform Q9NQC3-2): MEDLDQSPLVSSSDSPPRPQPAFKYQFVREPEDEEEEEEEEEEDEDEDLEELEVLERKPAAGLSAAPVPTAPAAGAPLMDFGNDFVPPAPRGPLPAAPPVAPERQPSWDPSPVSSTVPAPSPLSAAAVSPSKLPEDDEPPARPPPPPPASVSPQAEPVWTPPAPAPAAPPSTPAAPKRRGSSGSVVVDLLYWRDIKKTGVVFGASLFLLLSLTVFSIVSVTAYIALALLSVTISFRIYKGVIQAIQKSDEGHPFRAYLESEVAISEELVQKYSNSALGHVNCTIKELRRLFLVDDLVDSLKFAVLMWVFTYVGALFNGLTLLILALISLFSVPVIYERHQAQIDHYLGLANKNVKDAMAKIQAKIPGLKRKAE

[2] = molecular target: T1, reticulon-4 (RTN4/Nogo); test: microscale thermophoresis (MST); HuProt human proteome microarray and competitive pull-down; assay type: binding; parameters: RTN4B isoform predominantly captured in pull-down; MST construct printed only as RTN4

| Kd [1] [nM] | Compound | Kd [2] [nM] |
| --- | --- | --- |
| 12.1 ± 1.28 | COc1c(O)cc2oc3cc(O)c(CC=C(C)C)c(O)c3c(=O)c2c1CC=C(C)C [α-MG, α-mangostin] | – |
| – | biotin-α-MG | 39 ± 1.09 |
